We go through two molecules from patent publication US12029755B2, “Carbon monoxide-based therapies and implantable devices for the treatment of vascular disease” (THE REGENTS OF THE UNIVERSITY OF MICHIGAN, priority 2017, dated 2024).

One data set relates to C57B/6J mice. As to the kind of experiment: IVC flow-restriction (stenosis) model of venous thrombosis. The class given is in vivo, mouse. The protocol: To determine whether carbon monoxide-releasing molecules can be used as a therapeutic in prevention of flow-restriction mediated venous thrombosis (a model of venous thrombosis that mimics human venous clot, unlike IVC ligation), mice were injected with CORM-3 (Sigma SML0496, 10 mg/kg intraperitoneal injection) and subjected to IVC flow-restriction to induce thrombosis. Remarkably, CORM-3 treated mice developed no venous thrombus (0%, n=5) compared with controls (48%, n=21. P=0.001).
“Flow restriction” (Stenosis) thrombosis model: Partial IVC stenosis Model of Venous Thrombosis (FIG. 5) This model is a “flow-restriction” (or “stenosis) model in which the lumen is reduced by ˜90%. This model invokes disturbed flow at the stenosis site as a model for turbulent flow in venous valve pockets, where thrombi frequently develop. It also has applications to human venous “impingement” conditions, such as May Thurner syndrome. Mice, weighing 20 to 30 g, were anesthetized using an inhalation mixture of isoflurane gas (1.5%-2%) and oxygen (100%), placed in dorsal recumbence, and the IVC was approached directly via a midline laparotomy utilizing aseptic technique. A 7-0 Prolene suture (Ethicon, Inc. Somerville, NJ) was fastened around the IVC over a blunted 30-gauge needle (which serves as a spacer). […] Mice were humanely euthanized and thrombus formation assessed 2-7 days after laparotomy.

Another data set has as its system WT mice. As to the kind of experiment: IVC ligation (stasis) model of venous thrombosis with inhaled CO exposure. Particulars: for Venous stasis thrombus burden / Vessel wall leukocyte infiltration: 7 d inhaled CO, 250 ppm for 1 hour twice daily, after IVC ligation, vs normoxia-treated controls. The class given is in vivo, mouse. How it is done:
Carbon monoxide was focused on for these studies because it is an end product from heme degradation by HO-1.
The effect of CO on large vein thrombogenesis was determined. WT mice undergo venous thrombus induction by stasis or stenosis, followed by exposure to inhaled CO (250 ppm) for one hour twice daily. […] Thrombus burden was assessed as in SA1 indirectly (ultrasound, FIG. 6) and directly (thrombus weight/length), at pre-determined time points after surgery (1 d, 2 d, 7 d, 10 d, 21 d).
The mouse makes an excellent animal model of stasis-induced venous thrombosis. Mice, weighing 20 to 30 g, were anesthetized with an inhalation mixture of isoflurane gas (1.5% to 2%) and oxygen (100%), placed in dorsal recumbency and aseptically prepped for surgery. A midline laparotomy was made, the small bowel was exteriorized from the body cavity and moved slightly to the left of the animal, and then the IVC was directly approached by careful blunt dissection. Blunt dissection was facilitated using a sterile applicator swab and extra delicate half curved tissue forceps. Care was taken in handling mouse tissue due to its fragility. Periodically, the exteriorized bowel was moistened with sterile saline to prevent its desiccation. For consistent thrombus formation (90 to 95%), ligation of the IVC with a 7-0 prolene below the renal veins, ligation of an occasional side venous branch and cauterization of a deep posterior branch was performed if indicated to account for normal variation in anatomy. The laparotomy incision was closed in a 2-layer fashion using a 5-0 nonreactive suture material and VetBond glue (3M). Harvest of the IVC was performed at pre-determined time points.
Inhaled Carbon monoxide exposure: Mice were randomly assigned to the normoxia or carbon monoxide exposure group prior to IVC ligation or stenosis surgery. The carbon monoxide group was exposed to 250 ppm CO at a flow rate of 10 L/min for 1 h twice daily. One cohort of mice received “pre-conditioning” with CO exposure 1 day prior to surgery. To achieve 75% O2, 100% O2 is delivered at a flow rate of 0.5 l/min into a custom-made 1.5-m^3 plastic chamber. Oxygen concentrations were monitored continuously with an oxygen analyzer (Neutronics, Exton, PA), gas lines were filtered with activated charcoal to remove excess ammonia, and calcium chloride used to maintain CO2 levels below 0.05%. A CO analyzer (Ntron model 1100; Neutronics, Exton, PA) were used to monitor CO levels continuously in the chamber.

For another data set, the system named is humans. Particulars: dose up to 500 ppm, clinical trials; cited from earlier work.
In data set [1] the test system is heme oxygenase-1 expression. As to the kind of experiment: HO-1 expression in sham-operated WT IVC by quantitative RT-PCR and immunoblotting. The format is in vivo, mouse. Particulars: CO exposure (inhaled CO or CORM), sham-operated WT IVC compared with normoxic controls. How it is done: Also, it was determined that CO exposure (inhaled CO or CORM) induces heme oxygenase-1 expression in sham-operated WT IVC compared with normoxic controls by quantitative RT-PCR and immunoblotting. Therefore, inhaled CO can trigger a venous anti-inflammatory and anti-thrombotic program. Also, whether CO or CORM treatment alone is sufficient to rescue HO-1^−/− mice from exaggerated early venous thrombosis was assessed. HO-1^−/− mice undergo venous stasis or stenosis thrombus induction, followed by CORM or inhaled CO treatment. Thrombus size was measured at the time of expected peak thrombus burden.
On the technique in general: In western blotting, separated proteins are transferred to a membrane and probed.

Consider `NCC(=O)O.[CH+]=O.[CH+]=O.[CH+]=O.[Cl][Ru]` [CORM-3, tricarbonylchloro(glycinato)ruthenium (II)], for which the “Protection from venous thrombus compared with controls” value with C57B/6J mice (C57B/6J mice treated with CORM-3, VT induction by IVC flow-restriction) was “protected from venous thrombus”. The “Frequency of clot (venous thrombus)” value with C57B/6J mice (CORM-3 10 mg/kg intraperitoneal injection, IVC flow-restriction, n=5, controls 48% (n=21)) was 0%.
Take `[C-]#[O+]` [CO, carbon monoxide]: the “Venous stasis thrombus burden” value was “reduced” in the data set on WT mice and “profound reduction” with WT mice (listed as carbon monoxide). In addition, the “Vessel wall leukocyte infiltration” value was “reduced” with WT mice and “profound reduction” with WT mice (listed as carbon monoxide). Further, the “Thrombus size at 7 days” value in the data set on WT mice (WT mice, thrombus induction by stasis or stenosis, inhaled CO 250 ppm one hour twice daily) is reported as “robust reduction”. Further, the “Safety of inhaled CO dose” value in the data set on humans is given as “safe”. Besides, in data set [1], the “Heme oxygenase-1 expression in IVC” value is reported as “induces”.
